Each molecule was assayed against T1, Cbl-b ubiquitin ligase (N1/2 construct) (Homo sapiens, UniProt Q13191) (assay: Cbl-b biochemical assay (in vitro autoubiquitination ELISA, inhibition of ubiquitin ligase activity)). Details: in vitro enzymatic activity of Cbl-b ubiquitin ligase; 75-nM Cbl-b, 100 µM ATP, 60 min reaction; read-out: Cbl-b inhibitory activity IC50.
T1 construct: 75-nM Cbl-b (N1/2 construct) [27]
Description: Compounds 1–10 were tested for their ability to inhibit the in vitro enzymatic activity of the Cbl-b ubiquitin ligase (Table 3). […] There was no clear pattern of N-methylation or bromine substitution of the two pyrrole rings that directly correlated with the observed Cbl-b inhibitory activity.
An extract of Astrosclera willeyana was identified as an active source in a screening campaign of prefractionated natural product samples for the inhibition of Cbl-b ubiquitin ligase activity. The bulk extract was fractionated as described above, and the resulting fractions were evaluated for activity in the Cbl-b bioassay, the details of which have already been reported. In brief, dose response experiments with chromatography fractions and purified compounds were carried out in a Tris-HCl-based enzymatic assay buffer with the following final composition: 75-nM Cbl-b (N1/2 construct), 50-nM Ube2d2 protein (E2), 10-nM UBE1protein (E1), 50-nM biotinylated ubiquitin, and 0.5-µM unlabeled recombinant ubiquitin. The assay buffer also contained the following additives: 0.1-mM dithiothreitol, 0.5-mg/mL bovine gelatin (type B), 0.5-mM magnesium chloride, and 0.01% Triton X-100. Reactions were initiated by the addition of ATP to a final concentration of 100 µM. Following initiation, reactions were transferred to plates previously precoated overnight with 10 µg/mL of the polyubiquitin-binding domain of Cbl-b (UBA). The UBA domain of Cbl-b binds ubiquitin chains, which results in the capture and enrichment of autopolyubiquitinated Cbl-b. Following a reaction interval of 60 min, the reactions were quenched by the addition of zinc to a final concentration of 2.4 mM. Quenched reactions were incubated at room temperature overnight. Following this incubation period reaction, plates were processed as standard ELISA plates: washed thrice in Tris-buffered saline (with 0.1% Tween-20, 1X TBST), probed with avidin-conjugated horse radish peroxidase, which binds captured biotinylated ubiquitin, washed again in 1X TBST (3X), and then, an avidin-HRP-dependent fluorescent signal (indicating avidin-HRP/biotin-polyubiquitin complexes captured by the UBA coating on the plate) was detected (excitation 325 nm, emission 420 nm) using an Infinite M1000 (Tecan US, Inc., Raleigh, NC, USA) plate reader.

T1 sequence (Q13191 1-483 limits assumed): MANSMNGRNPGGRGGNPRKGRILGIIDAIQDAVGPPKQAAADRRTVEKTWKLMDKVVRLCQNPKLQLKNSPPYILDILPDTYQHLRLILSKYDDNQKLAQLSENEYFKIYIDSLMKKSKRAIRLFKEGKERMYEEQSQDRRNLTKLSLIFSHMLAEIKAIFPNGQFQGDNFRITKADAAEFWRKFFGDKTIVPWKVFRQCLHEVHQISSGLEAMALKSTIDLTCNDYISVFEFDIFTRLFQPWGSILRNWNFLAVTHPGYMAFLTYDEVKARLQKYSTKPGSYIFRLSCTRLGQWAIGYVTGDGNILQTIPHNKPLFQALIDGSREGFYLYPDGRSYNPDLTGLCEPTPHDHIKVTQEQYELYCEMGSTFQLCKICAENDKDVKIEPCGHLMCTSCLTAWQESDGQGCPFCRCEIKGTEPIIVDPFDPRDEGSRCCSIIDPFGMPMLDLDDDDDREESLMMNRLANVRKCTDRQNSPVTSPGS

Point of comparison: `CNc1nc[n+](C)c2ncn(C/C=C(\C)CC[C@]3(C)C4=CCCC(C)(C)[C@H]4CC[C@H]3C)c12` [Compound 2, Agelasine X], IC50 72000 nM. Against it:
- CC(=CCn1cnc2c1c(N)nc[n+]2C)CCC1(C)C2=CCCC(C)(C)C2CCC1C (stereo not shown) [Compound 1, Agelasine W] — within 1.5-fold, 57000 nM
- CNc1nc[n+](C)c2ncn(C/C=C(\C)CC[C@@]3(C)[C@H](C)CC[C@]4(C)C(C)=CCC[C@H]34)c12 [Compound 3, Agelasine Y] — within 1.5-fold, 66000 nM
- Cn1cc(Br)cc1C(=O)NCC1C(CNC(=O)c2ccc(Br)[nH]2)Cc2[nH]c(N)nc2C1c1c[nH]c(N)n1 (stereo not shown) [Compound 4, N(1)-methylisoageliferin] — 2.2-fold lower, 33000 nM
- Cn1c(Br)ccc1C(=O)NC[C@H]1Cc2nc(N)[nH]c2[C@@H](c2c[nH]c(N)n2)[C@@H]1CNC(=O)c1cc(Br)c[nH]1 [Compound 5, N(1′)-methylisoageliferin] — 2.9-fold lower, 25000 nM
- Cn1cc(Br)cc1C(=O)NC[C@H]1Cc2nc(N)[nH]c2[C@@H](c2c[nH]c(N)n2)[C@@H]1CNC(=O)c1cc(Br)c[nH]1 [Compound 6, N(1′)-methylageliferin] — 2.4-fold lower, 30000 nM
- Cn1cc(Br)cc1C(=O)NC[C@@H]1[C@@H](CNC(=O)c2ccc(Br)n2C)Cc2nc(N)[nH]c2[C@H]1c1c[nH]c(N)n1 [Compound 7, N(1),N(1′)-dimethylisoageliferin] — 4-fold lower, 18000 nM
- Cn1cc(Br)cc1C(=O)NC[C@H]1Cc2nc(N)[nH]c2[C@@H](c2c[nH]c(N)n2)[C@@H]1CNC(=O)c1cc(Br)cn1C [Compound 8, N(1),N(1′)-dimethylageliferin] — 3.8-fold lower, 19000 nM
- Cn1cc(Br)cc1C(=O)NC[C@H]1Cc2nc(N)[nH]c2[C@@H](c2c[nH]c(N)n2)[C@@H]1CNC(=O)c1cc(Br)c(Br)[nH]1 [Compound 9, N(1′)-methyl-2-bromoageliferin] — 3.8-fold lower, 19000 nM
- Cn1c(C(=O)NC[C@H]2Cc3nc(N)[nH]c3[C@@H](c3c[nH]c(N)n3)[C@@H]2CNC(=O)c2cc(Br)c[nH]2)cc(Br)c1Br [Compound 10, N(1′)-methyl-2′-bromoageliferin] — 2.1-fold lower, 35000 nM

— paper PMC8307156, “Agelasine Diterpenoids and Cbl-b Inhibitory Ageliferins from the Coralline Demosponge Astrosclera willeyana” (Marine Drugs, 2021)
